Broadly, the IC50 is the midpoint of a concentration-inhibition curve.

The values that follow come from US9963462B2 (priority 2015, dated 2018).

The target of assay [1] is SNAP-hSPR (sepiapterin reductase, SPR) (Homo sapiens, UniProt P35270). The assay can be described thus: biochemical. The assay is classed as binding. The note with it: terbium labelled SNAP-hSPR / SSZ labelled SNAP-EGFP; read-out: hTR-FRET IC50.
Assay [2] relates to BH4 levels in SK-N-BE (2) cells. The assay can be described thus: SKN-N-BE (2) cellular assay, BH4 levels by LC-MS. The assay is classed as cell-based. The note with it: Homo sapiens, SKNBE2, read-out: SK-N-BE(2) IC50, SK-N-BE (2) cells, BH4 levels by LC-MS.
Procedure: SKN-N-BE(2) Cellular Assay: SK-N-BE (2) cells were seeded in sterile, 96-well plates and incubated for 12-24 hours at 37° C. with 5% CO2 supply. Media was removed and fresh DMEM/F-12 media (containing Glutamine & Pen/Strep but no FBS) was added. Compounds (at different concentrations) were added to different wells. The plates were then incubated for 6-48 hours at 37° C. with 5% CO2 supply. Plates were then centrifuged and the supernatant was removed. The plates were then optionally washed once with PBS. They were then sealed and stored at −80° C. or immediately used. The cells were lysed and the level of BH4 was assessed by LC-MS.
Compounds were assayed for SPR inhibitory activity using a SKN-N-BE (2) cellular assay according to the following procedure. SK-N-BE (2) cells were seeded in sterile, 96-well plates and incubated for 12-24 hours at 37° C. with 5% CO2 supply. Media was removed and fresh DMEM/F-12 media (containing Glutamine & Pen/Strep but no FBS) was added. Compounds (at different concentrations) were added to different wells. The plates were then incubated for 6-48 hours at 37° C. with 5% CO2 supply. Plates were then centrifuged and the supernatant was removed. The plates were then optionally washed once with PBS. They were then sealed and stored at −80° C. or immediately used in the next step. The cells were lysed and the levels of BH4 were assessed by LC-MS.
The test system of assay [3] is BH4 production in human peripheral blood mononuclear cells (PBMCs). The assay can be described thus: hPBMC assay, inhibition of BH4 production by LC-MS (anti-CD3/anti-CD28 stimulated). Format: cell-based. The following applies: PBMC, read-out: hPBMC IC50.
Procedure: hPBMC Assay: PBMCs were either purchased or isolated from fresh human blood and used either as a fresh preparation or frozen for later use. The assay system was prepared by pre-treating the assay plates overnight with a solution containing anti-human CD3 antibody. Human PBMCs were suspended in assay medium and plated into the assay plates at a density of 1-4×10^5 cells per well. The desired concentration of the test compound was added to each well. A solution of human anti-CD28 antibody was also added to each well. Plates were incubated for 12-48 hours at 37° C. and 5% CO2. Assay plates were centrifuged for 5-15 minutes at 1-3000 RMP and supernatants were removed. The cells were lysed, sealed and used directly or frozen at −80° C. LC-MS was used to quantify the amount of inhibition of BH4 production.
PBMCs were either purchased or isolated from fresh human blood and used either as a fresh preparation or frozen for later use. The assay system was prepared by pre-treating the assay plates overnight with a solution containing anti-human CD3 antibody. Human PBMCs were suspended in assay medium and plated into the assay plates at a density of 1-4×10^5 cells per well. The desired concentration of the test compound was added to each well. A solution of human anti-CD28 antibody was also added to each well. Plates are incubated for 12-48 hours at 37° C. and 5% CO2. Assay plates were centrifuged for 5-15 minutes at 1-3000 RMP and supernatants were removed. The cells were lysed, sealed and used directly or frozen at −80° C.

Sequence of SNAP-hSPR (sepiapterin reductase, SPR) (P35270 whole entry): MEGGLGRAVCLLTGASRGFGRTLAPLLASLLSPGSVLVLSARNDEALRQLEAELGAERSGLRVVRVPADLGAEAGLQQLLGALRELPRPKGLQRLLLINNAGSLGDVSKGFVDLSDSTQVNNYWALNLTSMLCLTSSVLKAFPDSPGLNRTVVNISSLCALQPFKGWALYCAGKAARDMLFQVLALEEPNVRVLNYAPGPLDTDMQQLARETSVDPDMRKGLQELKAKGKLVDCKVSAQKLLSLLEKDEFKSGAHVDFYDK

As to `Cc1c(C(=O)N2CC3CC(C2)C3(F)F)cnn1-c1nn2cccc2c(=O)[nH]1` [Q-0799], the IC50 in assay [1] was 1 nM; in assay [2], 300 nM.
The corresponding values for `Cc1c(C(=O)N2CCN(c3ccccc3)CC2)cnn1-c1nn2cccc2c(=O)[nH]1` [Q-0802] are 1 nM and 67 nM.
For `Cc1c(C(=O)N2CCC(O)(C(F)(F)F)CC2)cnn1-c1nn2cccc2c(=O)[nH]1` [Q-0803], in that order: 1 nM and 200 nM.
With `Cc1c(C(=O)N2CC3(C2)CC(O)(C(F)(F)F)C3)cnn1-c1nn2cccc2c(=O)[nH]1` [Q-0805], the half-maximal inhibitory concentration (IC50) was determined as 4 nM in assay [1] and 2300 nM in assay [2].
For `Cc1c(C(=O)N2CC3[C@@H](C2)CN3C(=O)OC(C)(C)C)cnn1-c1nn2cccc2c(=O)[nH]1` (some centres unmarked) [Q-0806], in that order: 3 nM and 1200 nM.
Turning to `Cc1c(C(=O)N2CC3C(C2)C3(F)F)cnn1-c1nn2cccc2c(=O)[nH]1` (centres unmarked) [Q-0807], the IC50 in assay [1] worked out at 2 nM; in assay [2] it was 400 nM.
The corresponding values for `Cc1c(C(=O)N2CCC3(CCCC3)C2)cnn1-c1nn2cccc2c(=O)[nH]1` [Q-0808] are 1 nM and 200 nM.
For `Cc1c(C(=O)N2CC3CN(C(=O)OC(C)(C)C)CC3C2)cnn1-c1nn2cccc2c(=O)[nH]1` (centres unmarked) [Q-0809], in that order: 6 nM and 900 nM.
The corresponding values for `Cc1c(C(=O)N2CC(O)(C3CC3)C2)cnn1-c1nn2cccc2c(=O)[nH]1` [Q-0814] are 2 nM and 400 nM.
`Cc1c(C(=O)N2CC(N3CCC(F)(F)CC3)C2)cnn1-c1nn2cccc2c(=O)[nH]1` [Q-0818]: the figures for the IC50 in assay [1] and in assay [2] were 2 nM and 900 nM, respectively.
For the compound `Cc1c(C(=O)N2CCCC3(CC3)C2)cnn1-c1nn2cccc2c(=O)[nH]1` [Q-0819], the concentration for half-maximal inhibition (IC50) in assay [1] is 1 nM; in assay [2], 200 nM.
The corresponding values for `Cc1c(C(=O)N2CCN(C(=O)OC(C)(C)C)C3(CCC3)C2)cnn1-c1nn2cccc2c(=O)[nH]1` [Q-0820] are 1 nM and 40 nM.
The corresponding values for `Cc1c(C(=O)N2CCN(c3ccc(F)cc3)CC2)cnn1-c1nn2cccc2c(=O)[nH]1` [Q-0823] are 1 nM and 66 nM.
In the case of `Cc1c(C(=O)N2CC3CC(=O)CC3C2)cnn1-c1nn2cccc2c(=O)[nH]1` (centres unmarked) [Q-0824], the IC50 in assay [1] worked out at 5 nM; in assay [2], 1800 nM.
As for `CCC(C#N)C1CCN(C(=O)c2cnn(-c3nn4cccc4c(=O)[nH]3)c2C)CC1` (centres unmarked) [Q-0826], the IC50 in assay [1] was found to be 1 nM; in assay [2], 100 nM.
For `Cc1c(C(=O)N2CCN(c3ccc(Cl)cc3)CC2)cnn1-c1nn2cccc2c(=O)[nH]1` [Q-0827], in that order: 2 nM and 65 nM.
On to `Cc1c(C(=O)N2CCN(c3ccc(Cl)c(Cl)c3)CC2)cnn1-c1nn2cccc2c(=O)[nH]1` [Q-0828], for which the half-maximal inhibitory concentration (IC50) in assay [1] came out at 4 nM; in assay [2], 50 nM.
The corresponding values for `Cc1c(C(=O)N2CCN(c3ccc(C#N)cc3)CC2)cnn1-c1nn2cccc2c(=O)[nH]1` [Q-0829] are 1 nM and 80 nM.
For `Cc1c(C(=O)N2CCN(c3cccc(Cl)c3)CC2)cnn1-c1nn2cccc2c(=O)[nH]1` [Q-0830], in that order: 1 nM and 41 nM.
For `Cc1c(C(=O)N2CCN(c3cnccn3)CC2)cnn1-c1nn2cccc2c(=O)[nH]1` [Q-0831], in that order: 2 nM and 400 nM.
Take `Cc1c(C(=O)N2CCC(C(F)(F)F)CC2)nnn1-c1nn2cccc2c(=O)[nH]1` [Q-0832]: the half-inhibitory concentration (IC50) in assay [1] was found to be 1 nM; in assay [2], 200 nM.
For `Cc1c(C(=O)N2CCN(c3ccc(C(F)(F)F)cc3)CC2)cnn1-c1nn2cccc2c(=O)[nH]1` [Q-0833], in that order: 6 nM and 200 nM.
As for `CCOC(=O)c1cn(-c2nn3cccc3c(=O)[nH]2)nn1` [Q-0839], the IC50 in assay [1] was determined as 8 nM; in assay [2] it was 1500 nM.
In the case of `Cc1c(C(=O)N2CCN(c3cccc(C(F)(F)F)c3)CC2)cnn1-c1nn2cccc2c(=O)[nH]1` [Q-0840], the half-inhibitory concentration (IC50) in assay [1] was determined as 3 nM; in assay [2], 200 nM.
For `Cc1c(C(=O)N2C[C@H]3CN(C(=O)OC(C)(C)C)C[C@H]32)cnn1-c1nn2cccc2c(=O)[nH]1` [Q-0842], in that order: 2 nM and 700 nM.
`Cc1c(C(=O)N2CCN(c3ccccn3)CC2)cnn1-c1nn2cccc2c(=O)[nH]1` [Q-0843]: the IC50 came out at 1 nM in assay [1] and 200 nM in assay [2].
For `Cc1c(C(=O)N2CCC3C(C2)C3C(F)(F)F)cnn1-c1nn2cccc2c(=O)[nH]1` (centres unmarked) [Q-0844], the IC50 was 1 nM in assay [1] and 200 nM in assay [2].
The corresponding values for `Cc1c(C(=O)N2CCN(c3ccc(C#N)cn3)CC2)cnn1-c1nn2cccc2c(=O)[nH]1` [Q-0845] are 3 nM and 400 nM.
`Cc1c(C(=O)N2CC3CN(c4ccccc4)CC3C2)cnn1-c1nn2cccc2c(=O)[nH]1` (centres unmarked) [Q-0846]: the IC50 in assay [1] turned out to be 2 nM; in assay [2] it was 200 nM.
For `Cc1c(C(=O)N2CC3CN(C)CC3C2)cnn1-c1nn2cccc2c(=O)[nH]1` (centres unmarked) [Q-0847], in that order: 20 nM and 8800 nM.
The corresponding values for `Cc1c(C(=O)N2CCC3(CCNC3=O)CC2)cnn1-c1nn2cccc2c(=O)[nH]1` [Q-0848] are 2 nM and 10000 nM.
As for `Cc1c(C(=O)N2CCC(NC(=O)OC(C)(C)C)(C(F)(F)F)C2)cnn1-c1nn2cccc2c(=O)[nH]1` (centres unmarked) [Q-0852], the half-maximal inhibitory concentration (IC50) in assay [1] worked out at 2 nM; in assay [2] it was 800 nM.
On to `Cc1c(C(=O)N2CCn3cnnc3C2)cnn1-c1nn2cccc2c(=O)[nH]1` [Q-0853], for which the figures for the IC50 in assay [1] and in assay [2] were 30 nM and 10000 nM, respectively.
As for `Cc1c(C(=O)N2C3CCC2CN(c2ccc(C(F)(F)F)cn2)C3)cnn1-c1nn2cccc2c(=O)[nH]1` [Q-0854], the IC50 in assay [1] was determined as 3 nM; in assay [2], 200 nM.
With `Cc1c(C(=O)N2CCC(C(C#N)C3CC3)CC2)cnn1-c1nn2cccc2c(=O)[nH]1` (centres unmarked) [Q-0855], the values for the IC50 in assay [1] and in assay [2] were 1 nM and 100 nM, respectively.
For `Cc1c(C(=O)N2CCN3CCC[C@H]3C2)cnn1-c1nn2cccc2c(=O)[nH]1` [Q-0856], in that order: 4 nM and 1100 nM.
For `Cc1c(C(=O)N2C[C@@H]3CN(C(=O)OC(C)(C)C)C[C@@H]32)cnn1-c1nn2cccc2c(=O)[nH]1` [Q-0857], in that order: 3 nM and 800 nM.
Consider `Cc1c(C(=O)N2CCn3c(nnc3C(F)(F)F)C2)cnn1-c1nn2cccc2c(=O)[nH]1` [Q-0859], for which the IC50 came out at 20 nM in assay [1] and 8300 nM in assay [2].
With `Cc1c(C(=O)N2CCC3(CC2)CC3C(=O)N2CCOCC2)cnn1-c1nn2cccc2c(=O)[nH]1` (centres unmarked) [Q-1070], the values for the IC50 in assay [1] and in assay [3] were 2 nM and 200 nM, respectively.
For `Cc1c(C(=O)N2CCC2c2ccc(Cl)cc2)cnn1-c1nn2cccc2c(=O)[nH]1` (centres unmarked) [Q-1071], in that order: 6 nM and 32 nM.
For `CC[C@@H](C#N)C1CCN(C(=O)c2cnn(-c3nc4c(c(=O)[nH]3)CCC4)c2C)CC1` [Q-1072], in that order: 2 nM and 55 nM.
The corresponding values for `C=CCC(C#N)C1CCN(C(=O)c2cnn(-c3nc4c(c(=O)[nH]3)CCC4)c2C)CC1` (centres unmarked) [Q-1073] are 3 nM and 55 nM.
Consider `Cc1c(C(=O)N2CCC(c3noc(C(F)(F)F)n3)CC2)cnn1-c1nn2cccc2c(=O)[nH]1` [Q-1074], for which the values for the half-inhibitory concentration (IC50) in assay [1] and in assay [3] were 1 nM and 22 nM, respectively.
Regarding `Cc1c(C(=O)N2CCC(c3noc(C(F)(F)F)n3)CC2)cnn1-c1nc2c(c(=O)[nH]1)CCC2` [Q-1075], the 50% inhibitory concentration (IC50) in assay [1] was found to be 2 nM; in assay [3], 17 nM.
For `Cc1c(C(=O)N2CCC(c3nccs3)CC2)cnn1-c1nc2c(c(=O)[nH]1)CCC2` [Q-1076], in that order: 1 nM and 35 nM.
The corresponding values for `Cc1c(C(=O)N2CCC3(CC2)CC3C(=O)N2CCOCC2)cnn1-c1nc2c(c(=O)[nH]1)CCC2` (centres unmarked) [Q-1077] are 5 nM and 160 nM.
For `Cc1c(C(=O)N2CCc3nc(C(F)(F)F)sc3C2)cnn1-c1nn2cccc2c(=O)[nH]1` [Q-1078], in that order: 5 nM and 36 nM.
With `Cc1c(C(=O)N2CCC(c3nc(-c4ccccc4)co3)CC2)cnn1-c1nc2c(c(=O)[nH]1)CCC2` [Q-1079], the concentration for half-maximal inhibition (IC50) worked out at 3 nM in assay [1] and 74 nM in assay [3].
For `Cc1c(C(=O)N2CCC(c3nc(-c4ccccc4)co3)CC2)cnn1-c1nn2cccc2c(=O)[nH]1` [Q-1080], in that order: 2 nM and 25 nM.
For `Cc1c(C(=O)N2CC3CCCC(C2)N3CC(F)(F)F)cnn1-c1nc2c(c(=O)[nH]1)CCC2` [Q-1081], in that order: 2 nM and 130 nM.
The corresponding values for `Cc1c(C(=O)N2CC(N3CC(C(F)(F)F)C3)C2)cnn1-c1nn2cccc2c(=O)[nH]1` [Q-1082] are 4 nM and 120 nM.
In the case of `Cc1c(C(=O)N2C3CC2CN(CC(F)(F)F)C3)cnn1-c1nn2cccc2c(=O)[nH]1` [Q-1083], the figures for the concentration for half-maximal inhibition (IC50) in assay [1] and in assay [3] were 1 nM and 68 nM, respectively.
Take `Cc1c(C(=O)N2CCC(c3nc(-c4cccnc4)cs3)CC2)cnn1-c1nc2c(c(=O)[nH]1)CCC2` [Q-1084]: the half-maximal inhibitory concentration (IC50) in assay [1] is 2 nM; in assay [3], 13 nM.
The corresponding values for `Cc1c(C(=O)N2CCC(C(=O)N3CCC3)(C(F)(F)F)CC2)cnn1-c1nn2cccc2c(=O)[nH]1` [Q-1085] are 1 nM and 63 nM.
As to `Cc1c(C(=O)N2CCC(C(=O)N3CCCCC3)(C(F)(F)F)CC2)cnn1-c1nn2cccc2c(=O)[nH]1` [Q-1086], the IC50 in assay [1] was determined as 1 nM; in assay [3], 84 nM.
